Experimental data published in patent US20210260102A1, “TUNABLE IMMUNE RESPONSIVE BIODEGRADABLE ARGININE-BASED POLY(ESTER AMIDE)S AND METHODS OF MAKING AND USING SAME” (Cornell University, priority 2018, published 2021).

Assays:
RAW 264.7 cells [1] = experiment: NO production of macrophages (Griess reagent); assay type: cell-based, murine; settings: CAM (LPS+IFN-γ), 24 h
RAW 264.7 cells [2] = experiment: Arginase activity assay of treated macrophages; settings: 2 mg/mL, 24 h
Experimental: 4×10^5 RAW 264.7 cells in each well were incubated in 400 μL DMEM media contains 10% FBS in 24 well plates for 24 h. […] For CAM or AAM group, treatments contained either 100 U/mL recombinant mouse interferon-γ (IFN-γ, 1.25×10^7 U/mg, Shenandoah Biotechnology, PA) plus 100 ng/mL lipopolysaccharide (LPS, Sigma-Aldrich) or 20 ng/mL recombinant mouse interleukin-4 (IL-4, Shenandoah Biotechnology, PA) respectively to induce different activation phenotype. Resting Macrophages, CAM and AAM incubated in DMEM contains 5% FBS without treatments were used as controls.
The arginase activity assay is tested colorimetrically. The cells were washed with PBS and lysed by 200 μL 0.2% Triton X-100 in 20 mM Tris-HCl, pH 7.5 containing 20 g pepstatin A, 20 μg aprotinin and 20 μg leupeptin as protease inhibitors. After the cell was lysed, 200 μL 10 mM MnCl2 was added and the enzyme was activated for 10 minutes at 55° C. 100 μL aliquot of the activated lysate was mixed with 100 μL 0.5 M Arg and incubated at 37° C. for 1 h. […] After being cooled to room temperature, the absorbance of 200 μL mixture solution at 540 nm was tested in 96 well plates. […] The NO production and the arginase activity in three replicate wells of each condition were tested and the mean value was calculated with standard deviations.

[3] = neutral pH; cited from earlier work

Molecule	NO production of CAM (RAW 264.7 cells [1]; 1 mg/mL) [µM]	NO production of CAM (RAW 264.7 cells [1]; 2 mg/mL) [µM]	arginase activity of CAM (RAW 264.7 cells [2]) [U]	water solubility [3] [µg/mL]
N=C(N)NCCC[C@H](N)C(=O)O [Arg, L-arginine]	42.5 ± 2.6	50.7 ± 1.1	17.9±0.7	–
N-nitro-L-arginine [NOArg]	–	–	–	~870
